Data: patent US20160279297A1, “METHODS FOR INHIBITING STENOSIS, OBSTRUCTION, OR CALCIFICATION OF A STENTED HEART VALVE OR BIOPROSTHESIS” (CONCIEVALVE LLC, priority 2013, published 2016)

Assays:
Mesenchymal valve cells = assay: tritiated thymidine incorporation, PDGF-stimulated cell proliferation; format: cell-based
Description: Mesenchymal valve cells were isolated from the cardiac aortic valves by collagenase digestion. Cells were cultured in medium 199 with 10% (v/v) heat-inactivated fetal bovine serum at 37 C in a humidified atmosphere of 5% CO2 in air. Cells were utilized between the 3rd and 7th passage. Mesenchymal cells were grown to confluence in 24-well plates and then growth-arrested by incubation in serum-free medium for 24 hours. The test materials were added to the wells and incubated for 18 hours. Test materials include PDGF at concentrations (10-40 ug/ml) PDGF Sigma in combination with a MEK inhibitor (PD0325901 Mek Inhibitor) (2.5-10 ug/ml). The wells were pulsed for 4 hours with 1 μCi/well of tritiated thymidine. Newly synthesized DNA will be then identified by incorporation of radioactivity into acid-precipitated cellular material. All samples were assayed in quadruplicate wells. The positive control wells were given PDGF (10 ug/ml) Sigma (St. Louis, Mo.), the negative control wells received serum-free medium.

p42/44 = p42/44 protein expression by western blot; format: cell-based; conditions: FIG. 16 Panel C
neointima hyperplasia = conditions: stent coating, at four weeks; cited from earlier work
[1] = system: bovine pericardial bioprosthetic valve tissue; assay: rabbit model with subcutaneously implanted bioprosthetic valve tissue: RNA expression and pannus formation; format: in vivo
[2] = rabbit model of experimental hypercholesterolemia, serum levels; format: in vivo; conditions: cholesterol-fed rabbits, atorvastatin 3.0 mg/kg daily orally
Text: An experimental animal was developed to test for the dosing of the atorvastatin to reduce the inflammation and also the pannus formation on the valve leaflet. The experimental procedure is as follows, Male New Zealand white rabbits weighing 2.5-3.0 kg were assigned to a control (N=10) or 0.5% cholesterol-fed group (N=10) or to a cholesterol-fed and atorvastatin group (N=10). All animals were fed ad libitum for 12 weeks. Control rabbits were fed a standard diet. Cholesterol-fed animals received a diet supplemented with 0.5% (w/w) cholesterol (Purina Mills, Woodmont, Ind.), and the cholesterol-fed and atorvastatin group were given atorvastatin 3.0 mg/kg daily orally for the statin treatment arm^1. Prior to the initiation of the diet the rabbits underwent surgical implantation of bovine pericardial bioprosthetic valve tissue (Perimount, Edwards, Irvine Calif.) using intramuscular ketamine/xylazine (40/5 mg/kg). Following this 12-week period, the rabbits were anesthetized using intramuscular ketamine/xylazine (40/5 mg/kg) and then underwent euthanasia with intracardiac administration of 1 ml of Beuthanasia. Immediately after removal from the subcutaneous implantation site the bioprosthetic valves were fixed in 4% buffered formalin for 24 hours and then embedded in paraffin. Paraffin embedded sections (6 μm) were cut and stained with Masson Trichrome stain for histopathologic exam. […]

[3] = from biodegradable polylactic acid, follow-up of four years; cited from earlier work
[4] = atorvastatin at 80 mg per day equivalent to human dosing, FIG. 15

With `O=C(NOC[C@H](O)CO)c1ccc(F)c(F)c1Nc1ccc(I)cc1F` [PD0325901] the “dosing range with inhibition effect on cell proliferation” value (Mesenchymal valve cells; PDGF 10 ug/ml induced proliferation, tested range 2.5-10 ug/ml, 18 hours, FIG. 16 Panel B) was 5 to 10 µg/mL and the p42/44 protein expression (p42/44) was “inhibition”.
In the case of `CC(=O)O[C@H]1C(=O)[C@@]2(C)[C@H]([C@H](OC(=O)c3ccccc3)[C@]3(O)C[C@H](OC(=O)[C@H](O)[C@@H](NC(=O)c4ccccc4)c4ccccc4)C(C)=C1C3(C)C)[C@]1(OC(C)=O)CO[C@@H]1C[C@@H]2O` [Paclitaxel], the neointima hyperplasia (neointima hyperplasia) is given as “inhibits”.
With PDGF the mesenchymal cell proliferation (Mesenchymal valve cells; PDGF dose response 10-40 ug/ml, FIG. 16 Panel A) was “proliferating” and the p42/44 protein expression (p42/44) was “increase”.
With `CC(C)c1c(C(=O)Nc2ccccc2)c(-c2ccccc2)c(-c2ccc(F)cc2)n1CC[C@@H](O)C[C@@H](O)CC(=O)O` [Atorvastatin] the “stem cell RNA expression on the valves” value [1, 4] was “reduction”, the “stem cell mediated pannus formation” value [1, 4] was “reduction” and the “therapeutic benefit at the lower dosing ranges” value ([1]; previous experiments, 20 mg a day and 40 mg a day) was “zero therapeutic benefit”. The “ckit stem cell adhering to the valve” value ([1]; rabbit, in vivo) was “reduces”, the hsCRP serum levels ([2]; 12 weeks) was 7.8±8.7 and the serum cholesterol levels ([2]; 12 weeks (equivalent to 80 mg a day for humans)) was 824.0 ± 152.1 mg/dL.
In the case of `CCOCCO[C@@H]1CC[C@@H](C[C@@H](C)[C@@H]2CC(=O)[C@H](C)/C=C(\C)[C@@H](O)[C@@H](OC)C(=O)[C@H](C)C[C@H](C)/C=C/C=C/C=C(\C)[C@@H](OC)C[C@@H]3CC[C@@H](C)[C@@](O)(O3)C(=O)C(=O)N3CCCC[C@H]3C(=O)O2)C[C@H]1OC` [biolimus], the “major adverse clinical events versus sirolimus eluting stents” value [3] is given as “not inferior and potentially better”.
